Measurements taken from patent US20240270737A1, “SMALL MOLECULAR INHIBITORS OF STING SIGNALING COMPOSITIONS AND METHODS OF USE” (STINGINN INC., priority 2021, published 2024).

system: IFNβ expression (type I IFNβ promoter driving luciferase); assay: IFNβ promoter luciferase assay in hTERT-pIFNβ-Glu cells transfected with ISD; format: cell-based, human; details: Homo sapiens
Method: Inhibition of IFNβ expression was measured by Luciferase induction at 24 hours after transfection of ISD, DMSO is shown (230), ISD treatment only (220) was used as a control, according to an embodiment of the invention;
Inhibition of IFNβ expression was measured by Luciferase induction at 24 hours after transfection of ISD, Mock is shown (210), ISD treatment only (220) was used as a control, according to an embodiment of the invention;
Identification of small molecule inhibitors of STING. In the presence of cytosolic DNA species, STING becomes activated to drive the transcription of cytokines such as type I IFN. Compounds binding to STING via TSA were subsequently examined for their ability to prevent cytosolic DNA species from activating the type I interferon (IFN) promoter, using a live cell assay. This assay comprised immortalized human fibroblasts (hTERT) that were stably transfected with the type I IFN promoter driving luciferase as well as the CMV promoter driving SEAP (hTERT-pIFNβ-Glu). The live cell assay has previously been disclosed in PCT/US2019/025380 entitled IFN-Beta Reporter System for Immortalized Primary Cells inventor Glen N. Barber, which was filed Apr. 2, 2018 and published as WO2019195285, and which is herein incorporated by reference in its entirety and for all purposes. The ability of the small molecules to prevent activation of the type I IFN promoter and the transcription of luciferase, but not SEAP in response to cytosolic DNA species was assessed. The activation of STING, typically by CDNs, in turn activates the transcription factors NF-κB and IRF3, both of which are required to induce the transcriptional stimulation of the Type I IFN promoter, but not the CMV promoter as IRF3 and NF-kB transcription factor binding sites are not contained in the CMV promoter. The assay identified the small molecule Compound W1 in the first screen (HTS), where the level of luciferase was not able to activate the type I IFN promoter or induce the expression of luciferase (see Table I and Table II).
Inhibition of IFNβ expression was measured by Luciferase induction at 24 hours after transfection of ISD. ISD only treatment was used as control.
Inhibition of IFNβ expression was measured by Luciferase induction at 24 hours after transfection of ISD, Mock is shown (210), ISD treatment only (220) was used as a control.
Luciferase assay: hTERT-BJ1 Telomerase Fibroblasts stably expressing the luciferase gene under the control of the interferon-beta promoter and SEAP gene under control of the CMV promoter) (hTERT-pIFNβ-Glu) were generated by the Barber laboratory. Luciferase assay was performed using Secrete-Pair Dual Luminescence Assay Kit from GeneCopoeia following the manufacturer's protocol.

Compared with `CNc1nc(C)cc(N2CCN(Cc3csc(-c4ccc(OC)c(OC)c4)n3)CC2)n1` [Compound W23, 4-(4-{[2-(3,4-dimethoxyphenyl)-1,3-thiazol-4-yl]methyl}piperazin-1-yl)-N,6-dimethylpyrimidin-2-amine], `COc1ccc(-c2nc(CN3CCN(c4cc(C)nc(C(C)C)n4)CC3)cs2)cc1OC` [Compound W2] is higher in inhibition at 5 µM: -33% for the first, -4% for the second.

Compared with `COc1ccc(-c2nc(CN3CCN(c4cc(C)nc(N(C)C)n4)CC3)cs2)cc1` [Compound W7, 4-(4-{[2-(4-methoxyphenyl)-1,3-thiazol-4-yl]methyl}piperazin-1-yl)-N,N,6-trimethylpyrimidin-2-amine], `COc1cccc(-c2nc(CN3CCN(c4cc(C)nc(N(C)C)n4)CC3)cs2)c1` [Compound W8, 4-(4-{[2-(3-methoxyphenyl)-1,3-thiazol-4-yl]methyl}piperazin-1-yl)-N,N,6-trimethylpyrimidin-2-amine] is lower in inhibition at 5 µM: -11% for the first, -59% for the second.

Going from `COc1cc(C(F)(F)F)ccc1-c1nc(CN2CCN(c3cc(C)nc(N(C)C)n3)CC2)cs1` [Compound W31, 4-[4-({2-[2-methoxy-4-(trifluoromethyl)phenyl]-1.3-thiazol-4-yl}methyl)piperazin-1-yl]-N.N.6-trimethylpyrimidin-2-amine] to `Cc1cc(N2CCN(Cc3csc(-c4ccc(CC(F)(F)F)cc4)n3)CC2)nc(N(C)C)n1` [Compound W33, N.N.4-trimethyl-6-[4-({2-[4-(2.2.2-trifluoroethyl)phenyl]-1.3-thiazol-4-yl}methyl)piperazin-1-yl]pyrimidin-2-amine], the inhibition at 5 µM rises from 60% to 65%.

Compared with `Cc1cc(N2CCN(Cc3csc(-c4ccccc4)n3)CC2)nc(N(C)C)n1` [Compound W6, N,N,4-trimethyl-6-{4-[(2-phenyl-1,3-thiazol-4-yl)methyl]piperazin-1-yl}pyrimidin-2-amine], `Cc1cc(N2CCN(Cc3coc(-c4ccccc4)n3)CC2)nc(N(C)C)n1` [Compound W18, N,N,4-trimethyl-6-{4-[(2-phenyl-1,3-oxazol-4-yl)methyl]piperazin-1-yl}pyrimidin-2-amine] is lower in inhibition at 5 µM: -34% for the first, -82% for the second.

Compared with `Cc1cc(N2CCN(Cc3noc(-c4ccccc4)n3)CC2)nc(N(C)C)n1` [Compound W16, N,N,4-trimethyl-6-{4-[(5-phenyl-1,2,4-oxadiazol-3-yl)methyl]piperazin-1-yl}pyrimidin-2-amine], `Cc1cc(N2CCN(Cc3cnc(-c4ccccc4)o3)CC2)nc(N(C)C)n1` [Compound W17, N,N,4-trimethyl-6-{4-[(2-phenyl-1,3-oxazol-5-yl)methyl]piperazin-1-yl}pyrimidin-2-amine] is lower in inhibition at 5 µM: 26% for the first, 2% for the second.

Compared with `COc1cc(N2CCN(Cc3csc(-c4ccc(OC)c(OC)c4)n3)CC2)nc(N(C)C)n1` [Compound W27, 4-(4-{[2-(3,4-dimethoxyphenyl)-1,3-thiazol-4-yl]methyl}piperazin-1-yl)-6-methoxy-N,N-dimethylpyrimidin-2-amine], `CCc1cc(N2CCN(Cc3csc(-c4ccc(OC)c(OC)c4)n3)CC2)nc(N(C)C)n1` [Compound W25, 4-(4-{[2-(3,4-dimethoxyphenyl)-1,3-thiazol-4-yl]methyl}piperazin-1-yl)-6-ethyl-N,N-dimethylpyrimidin-2-amine] is lower in inhibition at 5 µM: -64% for the first, -126% for the second.

Going from `Cc1cc(N2CCN(Cc3csc(-c4ccc(C#N)cc4)n3)CC2)nc(N(C)C)n1` [Compound W10, 4-[4-({4-[2-(dimethylamino)-6-methylpyrimidin-4-yl]piperazin-1-yl}methyl)-1,3-thiazol-2-yl]benzonitrile] to `COc1ccc(-c2nc(CN3CCN(c4cc(C(C)C)nc(N(C)C)n4)CC3)cs2)cc1OC` [Compound W26, 4-(4-{[2-(3,4-dimethoxyphenyl)-1,3-thiazol-4-yl]methyl}piperazin-1-yl)-N,N-dimethyl-6-(propan-2-yl)pyrimidin-2-amine], the inhibition at 5 µM falls from -62% to -120%.
